The assay has as its system MV-4-11 cells. As to the kind of experiment: Gene expression microarray analysis (Affymetrix PrimeView) and GSEA. The following applies: ProbeSet 11732306_x_at; LIST D. Type of assay: cell-based, human. The arrangement: RFU PODN (11730768_x_at) / Fold change /veh PODN (11730768_x_at) / RFU LINC00158 (11744669_a_at) / Fold change /veh LINC00158 (11744669_a_at) / RFU DUSP10 (11751237_a_at) / Fold change /veh DUSP10 (11751237_a_at) / RFU ID3 (11757404_x_at) / Fold change /veh ID3 (11757404_x_at) / RFU PLEKHG5 (11737974_s_at) / Fold change /veh PLEKHG5 (11737974_s_at) / RFU LRRC4B (11730491_at) / Fold change /veh LRRC4B (11730491_at) / RFU GIMAP4 (11747438_a_at) / Fold change /veh GIMAP4 (11747438_a_at) / RFU KRT8 (11758183_x_at) / Fold change /veh KRT8 (11758183_x_at) / RFU CNN1 (11734310_a_at) / Fold change /veh CNN1 (11734310_a_at) / RFU VPS37D (11726825_at) / Fold change /veh VPS37D (11726825_at) / RFU C10orf10 (11716522_x_at) / Fold change /veh C10orf10 (11716522_x_at) / RFU KIR2DL2 /// KIR2DL4 /// KIR2DL5A /// KIR2DL5B /// KIR2DS1 /// KIR2DS2 /// KIR2DS3 /// KIR2DS4 /// KIR3DL3 /// KIR3DL3 /// KIR3DS1 (11738374_at) / Fold change /veh KIR2DL2 /// KIR2DL4 /// KIR2DL5A /// KIR2DL5B /// KIR2DS1 /// KIR2DS2 /// KIR2DS3 /// KIR2DS4 /// KIR3DL3 /// KIR3DL3 /// KIR3DS1 (11738374_at) / RFU C1QL1 (11718748_at) / Fold change /veh C1QL1 (11718748_at) / RFU TMPRSS4 (11747572_a_at) / Fold change /veh TMPRSS4 (11747572_a_at) / RFU HAMP (11756126_x_at) / Fold change /veh HAMP (11756126_x_at) / RFU RNFT2 (11725882_a_at) / Fold change /veh RNFT2 (11725882_a_at) / RFU NR4A2 (11747474_a_at) / Fold change /veh NR4A2 (11747474_a_at) / RFU ABCC12 (11746883_a_at) / Fold change /veh ABCC12 (11746883_a_at) / RFU TMEM136 (11760407_x_at) / Fold change /veh TMEM136 (11760407_x_at) / RFU CLDN22 /// WWC2 (11732394_at) / Fold change /veh CLDN22 /// WWC2 (11732394_at) / RFU HLA-DPB1 (11760878_x_at) / Fold change /veh HLA-DPB1 (11760878_x_at) / RFU SPINT1 (11716480_a_at) / Fold change /veh SPINT1 (11716480_a_at) / RFU GAP43 (11754022_s_at) / Fold change /veh GAP43 (11754022_s_at) / RFU A4GNT (11735810_at) / Fold change /veh A4GNT (11735810_at) / RFU PRB3 (11715151_x_at) / Fold change /veh PRB3 (11715151_x_at) / RFU TUBB4B (11761932_at) / Fold change /veh TUBB4B (11761932_at) / RFU CAPN14 (11732068_a_at) / Fold change /veh CAPN14 (11732068_a_at) / RFU TMCC2 (11721928_a_at) / Fold change /veh TMCC2 (11721928_a_at) / RFU IRGQ (11745062_a_at) / Fold change /veh IRGQ (11745062_a_at) / RFU FAM174B (11720279_a_at) / Fold change /veh FAM174B (11720279_a_at) / RFU TMPRSS4 (11748680_a_at) / Fold change /veh TMPRSS4 (11748680_a_at) / RFU FAM212B (11763350_a_at) / Fold change /veh FAM212B (11763350_a_at) / RFU PLEKHG5 (11743358_a_at) / Fold change /veh PLEKHG5 (11743358_a_at) / RFU ZSCAN30 (11745921_a_at) / Fold change /veh ZSCAN30 (11745921_a_at) / RFU CMKLR1 (11741424_a_at) / Fold change /veh CMKLR1 (11741424_a_at) / RFU LOC101060620 /// MAPK8IP1 (11723275_at) / Fold change /veh LOC101060620 /// MAPK8IP1 (11723275_at) / RFU SPTSSB (11747773_x_at) / Fold change /veh SPTSSB (11747773_x_at) / RFU PRSS12 (11739890_at) / Fold change /veh PRSS12 (11739890_at) / RFU BIN1 (11741810_x_at) / Fold change /veh BIN1 (11741810_x_at) / RFU WNT11 (11732464_a_at) / Fold change /veh WNT11 (11732464_a_at) / RFU C10orf10 (11716521_a_at) / Fold change /veh C10orf10 (11716521_a_at) / RFU C5orf56 (11738089_at) / Fold change /veh C5orf56 (11738089_at) / RFU CYB561 (11721691_x_at) / Fold change /veh CYB561 (11721691_x_at) / RFU ANKRD19P (11752326_a_at) / Fold change /veh ANKRD19P (11752326_a_at) / RFU OR2T12 /// OR2T33 /// OR2T8 (11738714_s_at) / Fold change /veh OR2T12 /// OR2T33 /// OR2T8 (11738714_s_at) / RFU VCAN (11748164_a_at) / Fold change /veh VCAN (11748164_a_at) / RFU JSRP1 (11732532_at) / Fold change /veh JSRP1 (11732532_at) / RFU KRTAP10-11 (11738290_x_at) / Fold change /veh KRTAP10-11 (11738290_x_at) / RFU MYO3A (11730013_a_at) / Fold change /veh MYO3A (11730013_a_at) / RFU EBF3 (11725865_a_at) / Fold change /veh EBF3 (11725865_a_at) / RFU CAMK2N1 (11719241_x_at) / Fold change /veh CAMK2N1 (11719241_x_at) / RFU C5orf56 (11738088_a_at) / Fold change /veh C5orf56 (11738088_a_at) / RFU OLFML3 (11715873_a_at) / Fold change /veh OLFML3 (11715873_a_at) / RFU LOC100653217 /// NTM (11731650_a_at) / Fold change /veh LOC100653217 /// NTM (11731650_a_at) / RFU MAPK11 (11762145_a_at) / Fold change /veh MAPK11 (11762145_a_at) / RFU FIZ1 (11724087_x_at) / Fold change /veh FIZ1 (11724087_x_at) / RFU OASL (11726364_x_at) / Fold change /veh OASL (11726364_x_at) / RFU SOX15 (11748057_x_at) / Fold change /veh SOX15 (11748057_x_at) / RFU CD79A (11719716_a_at) / Fold change /veh CD79A (11719716_a_at) / RFU HIST1H1D (11736915_at) / Fold change /veh HIST1H1D (11736915_at) / RFU CASKIN2 (11723855_a_at) / Fold change /veh CASKIN2 (11723855_a_at) / RFU LOC730098 (11760151_x_at) / Fold change /veh LOC730098 (11760151_x_at) / RFU OR4N2 (11742367_at) / Fold change /veh OR4N2 (11742367_at) / RFU PRRT2 (11749266_a_at) / Fold change /veh PRRT2 (11749266_a_at) / RFU SNX32 (11753110_a_at) / Fold change /veh SNX32 (11753110_a_at) / RFU CDHR5 (11726645_a_at) / Fold change /veh CDHR5 (11726645_a_at) / RFU RCAN1 (11760418_a_at) / Fold change /veh RCAN1 (11760418_a_at) / RFU FAM167A (11723789_a_at) / Fold change /veh FAM167A (11723789_a_at) / RFU FAM26E (11764081_at) / Fold change /veh FAM26E (11764081_at) / RFU ISYNA1 (11749810_s_at) / Fold change /veh ISYNA1 (11749810_s_at) / RFU ACY1 (11761880_at) / Fold change /veh ACY1 (11761880_at) / RFU 11764098_at / Fold change /veh 11764098_at / RFU SAMD14 (11745864_x_at) / Fold change /veh SAMD14 (11745864_x_at) / RFU NPB (11741838_a_at) / Fold change /veh NPB (11741838_a_at) / RFU TMPRSS6 (11731388_a_at) / Fold change /veh TMPRSS6 (11731388_a_at) / RFU KRTAP10-2 (11738614_at) / Fold change /veh KRTAP10-2 (11738614_at) / RFU ARHGAP8 /// PRR5-ARHGAP8 (11727945_x_at) / Fold change /veh ARHGAP8 /// PRR5-ARHGAP8 (11727945_x_at) / RFU KRTAP5-7 /// NADSYN1 (11734609_at) / Fold change /veh KRTAP5-7 /// NADSYN1 (11734609_at) / RFU RASL12 (11751679_a_at) / Fold change /veh RASL12 (11751679_a_at) / RFU CDKN2B (11736163_a_at) / Fold change /veh CDKN2B (11736163_a_at) / RFU PRF1 (11729649_at) / Fold change /veh PRF1 (11729649_at) / RFU, ZNF638 /// ZNF638-IT1 / Fold change vs veh, ZNF638 /// ZNF638-IT1 / RFU, PANK3 / Fold change vs veh, PANK3 / RFU, SH3YL1 / Fold change vs veh, SH3YL1 / RFU, ZEB2 / Fold change vs veh, ZEB2 / RFU, NRIP1 / Fold change vs veh, NRIP1 / RFU, PTTG1IP / Fold change vs veh, PTTG1IP / RFU, CAPN2 / Fold change vs veh, CAPN2 / RFU, MED14 / Fold change vs veh, MED14 / RFU, SNORA58 / Fold change vs veh, SNORA58 / RFU, C1orf63 / Fold change vs veh, C1orf63 / RFU, LRRFIP1 / Fold change vs veh, LRRFIP1 / RFU, NDUFAF7 / Fold change vs veh, NDUFAF7 / RFU, SLC12A2 / Fold change vs veh, SLC12A2 / RFU, IBTK / Fold change vs veh, IBTK / RFU, ESF1 / Fold change vs veh, ESF1 / Fold change vs veh, TMEM50B / RFU, TAOK1 / Fold change vs veh, TAOK1 / RFU, ACBD3 / Fold change vs veh, ACBD3 / RFU, TMA16 / Fold change vs veh, TMA16 / RFU, RWDD3 / Fold change vs veh, RWDD3 / RFU, BCAT1 / Fold change vs veh, BCAT1 / RFU, EDEM3 / Fold change vs veh, EDEM3 / RFU, TMEM33 / Fold change vs veh, TMEM33 / RFU, WDR75 / Fold change vs veh, WDR75 / RFU, AHCTF1 / Fold change vs veh, AHCTF1 / RFU, TFRC / Fold change vs veh, TFRC / RFU, ZDHHC17 / Fold change vs veh, ZDHHC17 / RFU, NOM1 / Fold change vs veh, NOM1 / RFU, ARL8B / Fold change vs veh, ARL8B / RFU, ZBTB11 / Fold change vs veh, ZBTB11 / RFU, TAMM41 / Fold change vs veh, TAMM41 / RFU, KIAA1704 /// LOC100996395 / Fold change vs veh, KIAA1704 /// LOC100996395 / RFU, ING1 / Fold change vs veh, ING1 / RFU, TRMT61B / Fold change vs veh, TRMT61B / RFU, FUBP3 / Fold change vs veh, FUBP3 / RFU, TP53 / Fold change vs veh, TP53 / RFU, TNKS2 / Fold change vs veh, TNKS2 / RFU, ZFP14 / Fold change vs veh, ZFP14 / RFU, ACTR2 / Fold change vs veh, ACTR2 / RFU, PPP3R1 / Fold change vs veh, PPP3R1 / RFU, PIK3R1 / Fold change vs veh, PIK3R1 / RFU, HNRNPA1 / Fold change vs veh, HNRNPA1 / RFU, RNF170 / Fold change vs veh, RNF170 / RFU, ZNF28 / Fold change vs veh, ZNF28 / RFU, RNGTT / Fold change vs veh, RNGTT / RFU, OGT / Fold change vs veh, OGT / RFU, BRD1 / Fold change vs veh, BRD1 / RFU, MARS / Fold change vs veh, MARS / RFU, ZNF655 / Fold change vs veh, ZNF655 / RFU, FAHD1 / Fold change vs veh, FAHD1 / RFU, BDP1 / Fold change vs veh, BDP1 / RFU, LRRCC1 / Fold change vs veh, LRRCC1 / RFU, ARID1A / Fold change vs veh, ARID1A / RFU, ZNF146 / Fold change vs veh, ZNF146 / RFU, ZNF330 / Fold change vs veh, ZNF330 / RFU, GPN3 / Fold change vs veh, GPN3 / RFU, C9orf123 / Fold change vs veh, C9orf123 / RFU, N4BP2L2 / Fold change vs veh, N4BP2L2 / RFU, ARFIP1 / Fold change vs veh, ARFIP1 / RFU, FAM179B / Fold change vs veh, FAM179B / RFU, BCL10 / Fold change vs veh, BCL10 / RFU, UHRF1BP1L / Fold change vs veh, UHRF1BP1L / RFU, BET1 / Fold change vs veh, BET1 / RFU, CNOT2 / Fold change vs veh, CNOT2 / RFU, ZNF268 / Fold change vs veh, ZNF268 / Fold change vs veh, ZNF507 / RFU, DGCR2 / Fold change vs veh, DGCR2 / RFU, WDSUB1 / Fold change vs veh, WDSUB1 / Fold change vs veh, HSP90B1 /// MIR3652 / RFU, ADSS / Fold change vs veh, ADSS / RFU, GK / Fold change vs veh, GK / RFU, ZNF148 / Fold change vs veh, ZNF148 / RFU, TAF9 / Fold change vs veh, TAF9 / RFU, SLC1A5 / Fold change vs veh, SLC1A5 / RFU, SLMO2 / Fold change vs veh, SLMO2 / RFU, ABCC4 / Fold change vs veh, ABCC4 / RFU, LOC101060439 /// RAP1B / Fold change vs veh, LOC101060439 /// RAP1B / RFU, RFX7 / Fold change vs veh, RFX7 / RFU, GTPBP10 / Fold change vs veh, GTPBP10 / RFU, CNEP1R1 / Fold change vs veh, CNEP1R1 / RFU, BIVM-ERCC5 /// ERCC5 / Fold change vs veh, BIVM-ERCC5 /// ERCC5 / RFU, ILF3 / Fold change vs veh, ILF3 / RFU 11762660_at / Fold change /veh 11762660_at / RFU VCAN (11757783_s_at) / Fold change /veh VCAN (11757783_s_at) / RFU DDX43 (11728927_at) / Fold change /veh DDX43 (11728927_at) / RFU KRT8 (11758188_x_at) / Fold change /veh KRT8 (11758188_x_at) / RFU NKD1 (11759106_at) / Fold change /veh NKD1 (11759106_at) / RFU SRD5A1 (11742802_a_at) / Fold change /veh SRD5A1 (11742802_a_at) / RFU TPSAB1 /// TPSB2 (11721975_s_at) / Fold change /veh TPSAB1 /// TPSB2 (11721975_s_at) / RFU GSTM3 (11746129_a_at) / Fold change /veh GSTM3 (11746129_a_at) / RFU IL23R (11737362_x_at) / Fold change /veh IL23R (11737362_x_at) / RFU TMEM51 (11727254_a_at) / Fold change /veh TMEM51 (11727254_a_at) / RFU PIWIL2 (11732686_x_at) / Fold change /veh PIWIL2 (11732686_x_at) / RFU ORM1 (11744905_x_at) / Fold change /veh ORM1 (11744905_x_at) / RFU CCDC152 (11743942_at) / Fold change /veh CCDC152 (11743942_at) / RFU ECM1 (11717891_a_at) / Fold change /veh ECM1 (11717891_a_at) / RFU IL23R (11748794_a_at) / Fold change /veh IL23R (11748794_a_at) / RFU TNFAIP8L3 (11732012_x_at) / Fold change /veh TNFAIP8L3 (11732012_x_at) / RFU MBOAT4 (11741988_at) / Fold change /veh MBOAT4 (11741988_at) / RFU 11764193_at / Fold change /veh 11764193_at / RFU TMEM53 (11763286_at) / Fold change /veh TMEM53 (11763286_at) / RFU MAGEB2 (11727129_at) / Fold change /veh MAGEB2 (11727129_at) / RFU TMEM200A (11744735_a_at) / Fold change /veh TMEM200A (11744735_a_at) / RFU CCDC152 (11751479_a_at) / Fold change /veh CCDC152 (11751479_a_at) / RFU FAM211A (11726209_a_at) / Fold change /veh FAM211A (11726209_a_at) / RFU RGS16 (11746705_a_at) / Fold change /veh RGS16 (11746705_a_at) / RFU VCAN (11755009_s_at) / Fold change /veh VCAN (11755009_s_at) / RFU RHOB (11743442_s_at) / Fold change /veh RHOB (11743442_s_at) / RFU RGS16 (11720943_a_at) / Fold change /veh RGS16 (11720943_a_at) / RFU RGS16 (11720944_at) / Fold change /veh RGS16 (11720944_at) / RFU, VPS4B / Fold change vs veh, VPS4B / RFU, CREB1 / Fold change vs veh, CREB1 / RFU, DNAJC13 / Fold change vs veh, DNAJC13 / RFU, GNAQ / Fold change vs veh, GNAQ / RFU, CDK5R1 / Fold change vs veh, CDK5R1 / RFU, ZRANB3 / Fold change vs veh, ZRANB3 / RFU, CUL4A / Fold change vs veh, CUL4A / RFU, CCNY / Fold change vs veh, CCNY / RFU, UFL1 / Fold change vs veh, UFL1 / RFU, COG3 / Fold change vs veh, COG3 / RFU, DIAPH2 / Fold change vs veh, DIAPH2 / RFU, SKA2 / Fold change vs veh, SKA2 / RFU, AFF3 / Fold change vs veh, AFF3 / RFU, LMF1 / Fold change vs veh, LMF1 / RFU, IPO11 / Fold change vs veh, IPO11 / RFU, DFFB / Fold change vs veh, DFFB / RFU, FOXP1 / Fold change vs veh, FOXP1 / RFU, CARD8 / Fold change vs veh, CARD8 / RFU, STRN3 / Fold change vs veh, STRN3 / RFU, ADK / Fold change vs veh, ADK / RFU, RASSF2 / Fold change vs veh, RASSF2 / RFU, WIPF1 / Fold change vs veh, WIPF1 / RFU, LARP1B / Fold change vs veh, LARP1B / RFU, RASA1 / Fold change vs veh, RASA1 / RFU, RB1 / Fold change vs veh, RB1 / RFU, PPFIA1 / Fold change vs veh, PPFIA1 / RFU, MAT2A / Fold change vs veh, MAT2A / RFU, CCT5 / Fold change vs veh, CCT5 / RFU, WDR92 / Fold change vs veh, WDR92 / RFU, CUX1 / Fold change vs veh, CUX1 / RFU, TTC7A / Fold change vs veh, TTC7A / RFU, TMEM135 / Fold change vs veh, TMEM135 / RFU, DEPTOR / Fold change vs veh, DEPTOR / RFU, CPM / Fold change vs veh, CPM / RFU, DNAJB6 / Fold change vs veh, DNAJB6 / RFU, CACNA2D3 / Fold change vs veh, CACNA2D3 / RFU, DTX4 / Fold change vs veh, DTX4 / RFU, TFCP2 / Fold change vs veh, TFCP2 / RFU, GMCL1 /// GMCL1P1 / Fold change vs veh, GMCL1 /// GMCL1P1 / RFU, AEBP2 / Fold change vs veh, AEBP2 / RFU, SNHG1 /// SNORD22 /// SNORD25 /// SNORD26 /// SNORD27 /// SNORD28 /// SNORD29 /// SNORD31 / Fold change vs veh, SNHG1 /// SNORD22 /// SNORD25 /// SNORD26 /// SNORD27 /// SNORD28 /// SNORD29 /// SNORD31 / Fold change (Aza/veh), C12orf56 (ProbeSet 11735607_a_at) / Fold change (ACY-1035/veh), C12orf56 (ProbeSet 11735607_a_at) / Fold change (Aza/veh), FGFR1OP (ProbeSet 11751329_s_at) / Fold change (ACY-1035/veh), FGFR1OP (ProbeSet 11751329_s_at) / Fold change (Aza/veh), VPS36 (ProbeSet 11739960_a_at) / Fold change (ACY-1035/veh), VPS36 (ProbeSet 11739960_a_at) / RFU SYPL1 (11715823_x_at) / Fold change /veh SYPL1 (11715823_x_at) / RFU IGFBP7 (11715501_s_at) / Fold change /veh IGFBP7 (11715501_s_at) / RFU REEP3 (11722064_at) / Fold change /veh REEP3 (11722064_at) / RFU IGLL1 (11728026_x_at) / Fold change /veh IGLL1 (11728026_x_at): dose or concentration left out as unconfirmed.

With `Nc1ncn([C@@H]2O[C@H](CO)[C@@H](O)[C@H]2O)c(=O)n1` [azacitidine], the “Fold change vs veh, CREB1” value stood at 0.82.

The values are drawn from publication PMC5218480 (PLoS ONE, 2017).
